Measured values: US10759754B2, “Aminobenzoic acid derivatives for use as anti-inflammatory agents, anti-metastatic agents and/or anticancer agents” (3R VALO, S.E.C., priority 2016, dated 2020)
Entries after “also recorded” stand apart in the source; their conditions may differ.

Tests used:
STAT3 = assay: Western blot of phosphorylated STAT3 in IL6-activated human macrophages; format: cell-based; details: human macrophages pretreated 30 min at 10 and 50 μM; 30 min activation with 25 ng/mL IL6
Protocol: (§1) Cell signaling studies: THP1-derived human macrophages (750×10^3 cells/mL) and MB49-I cells (500×10^3 cells/mL) were pretreated for 30 min with vehicle (DMSO), compounds 4 and 5, at 10, 25 or 50 μM; and then washed and recovered immediately (t=0 min) or after 30 min of activation with 50 U/mL IFNγ, 25 ng/mL IL6, or 10 ng/mL TNFα. Cell lysates were prepared and analyzed by immunoblotting as described.^21-23,25 Briefly, protein samples were resolved by SDS-PAGE under reducing conditions and transferred onto a PVDF membrane. Blots were first probed with rabbit polyclonal antibodies against phospho-STAT1 (pSTAT1), pSTAT3, or p-IκB (all at 1:2000) overnight at 4° C. Blots were then incubated with HRP-conjugated goat anti-rabbit IgG Ab (1:3000) for 1 h at room temperature. The same blots were stripped and then probed with anti-STAT1 or anti-STAT3 Abs (both at 1:1000). In both cases, probed molecules were visualized using an enhancement chemiluminescence detection kit (Thermo Fisher Scientific).

UBC cell line MB49-I = assay: IFNγ/TNFα-induced NO production (Griess) in MB49-I cells; format: cell-based, murine; details: 10 and 50 μM
Protocol: (§2) Evaluation of NO and Urea production by chemical methods. The MB49-I cells and the J774A.1 cells (25×10^3 cells/well) were grown and pretreated, as indicated, with various anti-inflammatory derivatives, precursors and mono-functional derivatives for a period of 3 h. Afterwards the cells were washed twice with 10% FBS RPMI-1640 and then activated to produce NO for a period of 24 h with cytokines INFγ and TNFα. NO production was measured using the Griess reagent method as previously described.^27 This method involves the detection of nitrite ions (NO2^−) formed by the spontaneous oxidation of NO under physiological conditions. According the manufacture procedure (Life Technologies; # G-7921), equal volumes of sulfanilic acid and N-(1-naphthyl)ethylenediamine are mixed together to form the Griess reagent. In the presence of NO2^−, sulfanilic acid is converted to a diazonium salt, which in turn is coupled to N-(1-naphthyl)ethylenediamine to produce a pink coloration that is measured with a spectrophotometer (Biotek, synergy HT) at 548 nm. In the same manner, urea synthesis through arginase-1 activity was measured using commercially available kit.

[1] = tested on: IL6/STAT3 signaling pathway; assay: Western blot of IL6/STAT3 signaling in MB49-I cells; format: cell-based, murine; details: doses as lower as 10 μM
Protocol: as §1

MB49-I cells = assay: LPS/IFNγ-induced NO production in MB49-I cells; format: cell-based, murine; details: compound 4 at 30 μM, compound 12 at 10, 20, 37.5 and 50 μM
Protocol: as §2, with “Afterwards the cells were washed twice with 10% FBS RPMI-1640 and then activated to produce NO for a period of 24 h with cytokines INFγ and TNFα.” left out

CC(C)(C)OC(=O)NNC(=O)c1ccc(N2C(=O)C=CC2=O)cc1 [Compound 4, N′-[4-(2,5-dioxo-2,5-dihydro-pyrrol-1-yl)-benzoyl]-hydrazine carboxylic acid tert-butyl ester]
IL6-induced STAT3 activation (ratio of phosphorylated/no phosphorylated proteins) (STAT3): decreased; also recorded: efficiently inhibited | combined IFNγ/TNFα-induced NO synthesis (UBC cell line MB49-I): efficiently inhibited | IL6/STAT3 signaling pathway (Western blot) [1]: inhibit; also recorded: efficiently inhibited | LPS/IFNγ-induced NO synthesis (MB49-I cells): inhibitory effect
